Values after ≈ are worked out from the molar mass of the structure shown.
Details: buffer; pH 7.4; 200.0 µM

| SMILES | solubility kinetic [µg/mL] |
| --- | --- |
| COn1c(-c2ccc(Cl)cc2)nc2ncccc21 | > 39 |
| CCCC(=O)Nc1ccc(C=C(C(C)=O)C(C)=O)cc1 | > 41 |
| Fc1ccc(SCCc2cccc[nH+]2)cc1.O=P([O-])(O)O | 9.7 |
| Cc1ccc(-n2ccnc2SCC(=O)O)cc1C | > 39.3 |
| Cc1ccc([N+](=O)[O-])c(OCCn2cnc3ccccc32)c1 | 11.6 (≈ 39 µM) |
| CCCc1nc2oc3ccccc3c(=O)c2c(=O)n1-c1ccc(C)cc1 | 39.8 (≈ 115 µM) |
| Cc1ccc(S(=O)(=O)Nc2ncccn2)cc1 | > 37.4 |
| CN(CC(=O)NC1CCCC1)S(=O)(=O)c1cnc[nH]1 | > 43 |
| Cc1cc(NC(=O)C2CC(=O)N(c3ccc(Cl)cc3)C2)no1 (stereo unspecified) | 31 (≈ 97 µM) |
| COC(OC)C(C)NC(=O)NC(=O)c1ccccc1Cl (stereo unspecified) | 39.2 (≈ 130 µM) |
| O=C(O)CNS(=O)(=O)c1ccc2c3c(cccc13)C(=O)N2 | > 45.9 |
| CN(Cc1cccs1)C(=O)COC(=O)CNC(N)=O | > 42.8 |
| Cc1nnc(SCC(=O)c2c(N)n(C3CC3)c(=O)[nH]c2=O)n1C | > 50.5 |
| COc1ccc(N)cc1S(=O)(=O)Nc1ccccc1Cl | > 46.9 |
| N#Cc1ccc(COc2cccc3cccnc23)cc1 | 32.4 (≈ 124 µM) |
| Cc1ccc(/C=C(\C#N)C(=O)Nc2cccc(C)n2)cc1 | < 0.2 |
| NC(Cc1ccc(OC(F)F)cc1)C(=O)O (stereo unspecified) | 32.7 (≈ 141 µM) |
| Cc1ccc(/C(=N/Nc2ncnc3ccccc23)C(=O)O)cc1 | > 45.9 |
| Oc1ccc(Br)cc1CNc1nccs1 | 4.4 (≈ 15.4 µM) |
| Cc1occc1C(=O)/C(C#N)=C/c1ccc(O)c(Br)c1 | > 49.8 |

| SMILES | solubility kinetic [µg/mL] |
| --- | --- |
| S=C(Nc1cccc(Cl)c1)Nc1ccc2c(c1)OCCO2 | 40.4 (≈ 126 µM) |
| COc1ccc(CNC(=O)c2ccc[nH]2)cc1Cl | > 39.7 |
| C=CCn1ccc(O)c(Cc2ccc(Cl)cc2)c1=O | 38.6 (≈ 140 µM) |
| COCCn1c(N2CCCC2)nc2c1c(=O)[nH]c(=O)n2C | > 44 |
| O=C1CCC2=C(CCCC2=O)N1 | 24.2 (≈ 146 µM) |
| Cc1nc2nc(-c3cccs3)[nH]c2cc1Br | 3.8 (≈ 12.9 µM) |
| CN(C)S(=O)(=O)c1ccc(C(=O)OCC2COC(C)(C)O2)cc1 (stereo unspecified) | 48.6 (≈ 142 µM) |
| CCOc1ccc(Nc2ccc(N3C(=O)CCC3=O)cc2[N+](=O)[O-])cc1 | 2.3 (≈ 6.47 µM) |
| CN=C1S/C(=C\c2cccc(Cl)c2Cl)C(=O)N1C | < 0.3 |
| COc1cc(C(=O)Oc2cccnc2)cc(OC)c1OC.Cl | > 48.9 |
| Cc1nc2sc3c(c2c(=O)[nH]1)CCCCC3 | 2 (≈ 8.54 µM) |
| C=CCn1c(C)nnc1SCC(=O)NC1CC1 | > 37.9 |
| CCOC(=O)c1c(C)oc2cc(Cl)c(O)c(CN(C)C)c12 | 43.9 (≈ 141 µM) |
| Cc1cc(C)cc(OC(C)C(=O)Nc2ccc3c(c2)n(C)c(=O)n3C)c1 (stereo unspecified) | 37.9 (≈ 107 µM) |
| Cc1[nH]c2ccccc2c1CC#N | 21.3 (≈ 125 µM) |
| Nc1cc(Cl)ccc1N1CCCCC1 | 0.6 (≈ 2.85 µM) |
| Cc1cc(Nc2ccc(F)c(F)c2)nc(-c2ccccc2O)n1 | < 0.2 |
| COc1ccc(C(=O)Nc2nc3ccc(OC)cc3s2)cc1 | 1.4 (≈ 4.45 µM) |
| COc1cc(S(=O)(=O)N2CCOCC2)cc(C(=O)NCC(c2cccs2)N2CCOCC2)c1OC (stereo unspecified) | 7.4 (≈ 14.1 µM) |
| COc1ccc(N/C=C\C(=O)c2ccc3ccccc3c2)cc1 | < 0.6 |

| SMILES | solubility kinetic [µg/mL] |
| --- | --- |
| COc1cccc(/C=C/C(=O)Nc2ccc3[nH]c(=O)[nH]c3c2)c1 | 6.7 (≈ 21.7 µM) |
| CCN(CC)C(=O)CN(C#N)c1nc(Cl)nc(N(C)C)n1 | 41.3 (≈ 132 µM) |
| CN(C(=O)CSc1nnc(-c2ccc(F)cc2)n1C)C1CCS(=O)(=O)C1 (stereo unspecified) | > 59.8 |
| CCc1sc(C(=O)Nc2ncccc2C)cc1C | > 39.1 |
| Cc1noc(NS(=O)(=O)c2ccc(NC(=O)c3ccccc3NS(=O)(=O)c3ccc(F)cc3)cc2)c1C | > 81.7 |
| Cc1cc(/C=C2\SC(=O)N(C)C2=O)c(C)n1-c1ccc(O)cc1 | 5.6 (≈ 17.1 µM) |
| O=C(Nc1ccc(Cn2ccnc2)cc1)c1cccc(C(F)(F)F)c1 | 1.6 (≈ 4.63 µM) |
| COC(=O)CCN(C(=O)c1ccc(Cl)c([N+](=O)[O-])c1)c1ccccn1 | > 54.6 |
| O=C(COC(=O)c1ccccc1C(F)(F)F)NC(=O)NCc1ccco1 | 19.5 (≈ 52.7 µM) |
| COC(=O)c1sc(NC(=O)COc2c(C)cccc2C)nc1C | 0.4 (≈ 1.2 µM) |
| Cc1cccc(OCC2Cn3c(nc4c3c(=O)[nH]c(=O)n4C)O2)c1 (stereo unspecified) | 9 (≈ 27.4 µM) |
| COc1cccc(C(=O)Nc2ccc(Oc3cccc(C(F)(F)F)c3)nc2)c1 | < 0.4 |
| CCOC(=O)Nc1cc(NC(=O)OCC)c(C)nc1C | > 42.2 |
| COc1ccc(C(=O)OCC(=O)NC(=O)Nc2ccccc2F)c(OC)c1 | 2.4 (≈ 6.38 µM) |
| CCOc1ccc(S(=O)(=O)N(CC)CC)cc1N | > 40.9 |
| COCCNC(=O)C(OC(=O)c1cccs1)c1ccc(F)cc1 (stereo unspecified) | > 50.6 |
| CC(=O)Nc1ccc(NC(=O)C(C)OC(=O)CCSc2ccccc2Cl)cc1 (stereo unspecified) | 10.2 (≈ 24.2 µM) |
| O=C(Sc1ccc(Cl)cc1)c1ccccn1 | 1.7 (≈ 6.81 µM) |
| COCCCn1c(=NC(C)=O)c(C#N)cc2c(=O)n3cccc(C)c3nc21 | 52.3 (≈ 143 µM) |
| COc1ccc(Nc2oc(-c3ccccc3F)nc2C#N)cc1 | < 0.2 |

The next lines start with the values.

| solubility kinetic [µg/mL] | SMILES |
| --- | --- |
| > 46.7 | CC1CN(C(=O)CS(=O)(=O)Cc2ccccc2)CC(C)O1 (stereo unspecified) |
| 25 (≈ 101 µM) | O=C(O)CN1C(=O)CC(c2ccccc2)CC1=O |
| 29.5 (≈ 122 µM) | COc1ccc(CC(CN)c2ccccc2)cc1 (stereo unspecified) |
| 7.4 (≈ 14.5 µM) | CCC(C(=O)Nc1ccc(N2CCOCC2)c(S(=O)(=O)Nc2ccccc2OC)c1)c1ccccc1 (stereo unspecified) |
| > 49 | CCOC(=O)C1CCN(C(=S)NC(=O)c2cccs2)CC1 |
| < 0.4 | O=C(CCc1ccccc1)NC(=S)Nc1ccc2c(c1)C(=O)OC2 |
| > 53.2 | CC(=O)c1ccc(C(=O)NC2CCCN(Cc3ccccc3F)C2)cc1 (stereo unspecified) |
| > 49.1 | COc1cc(NC(=O)/C=C/c2ccccc2)c(C(=O)O)cc1OC |
| 37.3 (≈ 144 µM) | CCOC(=O)c1cnc(Cc2ccccc2)[nH]c1=O |
| 2 (≈ 6.7 µM) | COc1ccc(CNC(=O)c2cc(C(=O)C3CC3)c[nH]2)cc1 |
| 8.3 (≈ 30.4 µM) | Cc1ccc(F)cc1NC(=O)CCOc1ccccc1 |
| > 39.6 | O=C(NCC(=O)N1CCCCCCC1)c1ccco1 |
| 39.8 (≈ 134 µM) | CC(C)CCN1CCN(Cc2cccs2)CC1CCO (stereo unspecified) |
| > 49.5 | CC(CN1C(C)CCCC1C)OC(=O)c1cccc(F)c1.Cl (stereo unspecified) |
| > 44.6 | O=C(CCCc1ccccc1)NCc1ccc2c(c1)OCO2 |
| > 46 | CCOC(=O)C1(CCOC)CCN(Cc2ccncc2)CC1 |
| 33 (≈ 129 µM) | O=C1C2=C(CCCC2)C(=O)N1CNc1ccccc1 |
| > 37.6 | O=C(NC1CCCCCC1)c1ccc[nH]c1=S |
| 7.3 (≈ 27.5 µM) | c1ccc(C2Nc3ccccc3C3OCCCC23)cc1 (stereo unspecified) |
| 6.2 (≈ 21.3 µM) | CCCCNC(=S)N1CCC(Cc2ccccc2)CC1 |
| 33.7 (≈ 113 µM) | O=C(CSc1nc2ccccc2[nH]1)NCc1ccccc1 |

| solubility kinetic [µg/mL] | SMILES |
| --- | --- |
| 11.5 (≈ 32.6 µM) | Cc1ccc(NC(=O)C2CCCN2C(=O)OCc2ccccc2)cc1C (stereo unspecified) |
| 29.6 (≈ 104 µM) | COc1ccc(CN2CCc3ccccc3C2)c(OC)c1 |
| < 0.3 | CCOc1ccc(NC(=S)c2ccc3ccccc3n2)cc1 |
| > 59.3 | CC(=O)Nc1ccc(S(=O)(=O)N(C)CC(=O)NC2CCCCCCC2)cc1 |
| > 39.1 | CCC1CCCCN1C(=O)NC(=O)c1ccccc1 (stereo unspecified) |
| > 43.4 | O=C(CSCc1ccccc1F)NCc1ccccc1 |
| 57.4 (≈ 138 µM) | COc1ccc(Cl)cc1NC(=O)COC(=O)C1CC(=O)N(Cc2ccccc2)C1 (stereo unspecified) |
| 2 (≈ 6.09 µM) | CSc1ncccc1C(=O)OCC(=O)N1CCc2ccccc21 |
| 1.3 (≈ 3.67 µM) | O=S(=O)(c1ccccc1)c1nc(-c2ccccc2)oc1N1CCCC1 |
| > 47.8 | COc1ccc(CN2CCN(CC3CC3)CC2CCO)cc1C (stereo unspecified) |
| > 35.6 | COc1cccc(OC(=O)N2CCOCC2)c1 |
| 2.3 (≈ 7.78 µM) | O=C(COC(=O)c1cccs1)Nc1ccccc1Cl |
| 40.8 | CCN(CC)C(=N)N1c2ccccc2CCC1C.Cl (stereo unspecified) |
| > 50.8 | Cc1ccc(C(=O)Nc2ccccc2C(=O)NCC2CCCO2)cc1 (stereo unspecified) |
| 0.7 (≈ 2.53 µM) | Cc1cccc(NC(=O)c2cc(C)nc3ccccc23)c1 |
| > 52.1 | c1ccc(-n2cc(CN3CCCC3)c(-c3ccc4c(c3)OCO4)n2)cc1 |
| > 57.7 | O=S(=O)(Nc1cccc(S(=O)(=O)N2CCCC2)c1)c1ccccc1F |
| > 52.9 | CCN1CCN(c2ncnc3scc(-c4ccc(C)c(C)c4)c23)CC1 |
| > 49.6 | c1ccc(-c2nc3nc4ccccc4nc3n2CC2CCCO2)cc1 (stereo unspecified) |
| > 42.6 | CN1CCN(C(=O)c2cc([N+](=O)[O-])ccc2Cl)CC1 |
| 31.4 (≈ 134 µM) | COc1cccc(C(=O)NC2CCNCC2)c1 |

| solubility kinetic [µg/mL] | SMILES |
| --- | --- |
| 2.4 (≈ 7.73 µM) | CCc1cccc(NC(=O)CC2Oc3ccccc3NC2=O)c1 (stereo unspecified) |
| > 44.8 | CCC(C)[C@H](NC(=O)NCc1ccc(Cl)cc1)C(=O)O (stereo partly specified) |
| > 46.6 | CS(=O)(=O)N(CCc1ccccc1)CC(=O)N1CCCC1 |
| 1.9 (≈ 5.77 µM) | CCCc1nc(SCC(=O)NC2CCCC2)c2ccccc2n1 |
| 2.2 (≈ 5.09 µM) | COc1ccc(CCNC(=O)c2ccccc2C(=O)NCCc2ccc(OC)cc2)cc1 |
| 1.8 (≈ 5.5 µM) | CC(CCc1ccccc1)NC(=O)COC(=O)c1ccccc1O (stereo unspecified) |
| 44.7 (≈ 141 µM) | COc1ccc(NC(=S)N(CCO)Cc2ccccc2)cc1 |
| > 41.4 | O=C(COC(=O)C1CC1)NC(=O)NCc1ccccc1 |
| 7.7 (≈ 20.7 µM) | O=C(CNC(=O)c1ccc(Cl)cc1)OCN1C(=O)c2ccccc2C1=O |
| > 50.9 | CC1CC(O)(CC(O)(c2ccccc2)c2ccccc2)C(C)CN1C (stereo unspecified) |
| 2 (≈ 5.72 µM) | CCOc1ccc(C(NC(=O)CC)c2c(O)ccc3ccccc23)cc1 (stereo unspecified) |
| 12.3 (≈ 49.1 µM) | CCCc1nc2ccccc2n1C(=S)SC |
| > 38 | Cc1ccccc1Nc1c(C)c(C)nc2ncnn12 |
| 43.9 (≈ 137 µM) | CCOC(=O)N1CCN(c2ccnc3cc(Cl)ccc23)CC1 |
| 35.1 (≈ 123 µM) | COc1ccc(S(=O)(=O)N2CCNC(=O)CC2)cc1 |
| 8.6 (≈ 31.2 µM) | S=C(Nc1ccc(Cl)cc1Cl)N1CCCC1 |
| 28.4 (≈ 133 µM) | CCCCCCC1CC(=O)NC(=S)N1 (stereo unspecified) |
| > 45.5 | Cc1ccccc1OCC(=O)OCC(=O)NCc1ccco1 |
| 20.9 (≈ 66.5 µM) | CN(c1ccccc1)c1nc(N)c([N+](=O)[O-])c(N2CCCC2)n1 |

From PubChem BioAssay AID1996
